# Values of other authors in US12365644B2, “Co-crystal of ketoprofen, lysine and gabapentin, pharmaceutical compositions and their medical use” (DOMPÉ FARMACEUTICI S.P.A., priority 2020, dated 2025).
# Columns and labels:
# [1] = most common side effects
compound,measurement,setting,value
NCC1(CC(=O)O)CCCCC1 [Gabapentin],time to utmost level in plasma,after oral administration,3 to 4 h
same,attachment to plasma proteins,in vivo,does not attach to plasma proteins
same,excretion half-life,renal excretion,roughly 6 hours
same,side effect: ataxia,[1],13%
same,side effect: dizziness,[1],18%
same,side effect: fatigue,[1],11%
same,side effect: somnolence,[1],20%
